{"source": "patent US7638637B2", "about": "“Orally available sphingosine 1-phosphate receptor agonists and antagonists” (University of Virginia Patent Foundation, priority 2003, dated 2009)", "type_in_all_cases": "biochemical", "key": {"hS1P4": {"target": "T1, hS1P4 (Homo sapiens, UniProt O95977)", "T1 construct": "expressed in transfected cells; host or cells: HEK293T cells (transient)", "T1 sequence (O95977 1-384)": "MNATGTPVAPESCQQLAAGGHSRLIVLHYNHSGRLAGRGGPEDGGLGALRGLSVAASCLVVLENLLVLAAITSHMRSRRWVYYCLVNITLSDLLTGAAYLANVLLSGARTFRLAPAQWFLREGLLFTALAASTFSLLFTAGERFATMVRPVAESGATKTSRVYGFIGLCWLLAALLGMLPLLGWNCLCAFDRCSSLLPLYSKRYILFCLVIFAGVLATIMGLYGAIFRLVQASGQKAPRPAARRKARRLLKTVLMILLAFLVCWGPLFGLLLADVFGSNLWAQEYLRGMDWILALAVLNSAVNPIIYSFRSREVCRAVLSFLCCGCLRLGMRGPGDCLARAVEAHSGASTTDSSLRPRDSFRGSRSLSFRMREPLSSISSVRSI", "test": "[γ-35S]GTP binding assay, HEK293T cell membranes, S1P4", "details": "GTPγS binding", "method": "(§1) After incubating for 30 minutes at 30° C., bound radionuclide was separated from free by filtration through Whatman GF/C paper using a Brandel Cell Harvester (Gaithersburg, Md.).\n(§2) An additional series of compounds was tested using the GTPCS binding assay described in Example 2 and in Im et al., J. Biol. Chem. 275, 14281-14286 (2000), the disclosure of which is incorporated herein)."}, "hS1P2": {"target": "T2, hS1P2 (Homo sapiens, UniProt O95136)", "T2 construct": "expressed in transfected cells; host or cells: HEK293T cells (transient)", "T2 sequence (O95136 whole entry)": "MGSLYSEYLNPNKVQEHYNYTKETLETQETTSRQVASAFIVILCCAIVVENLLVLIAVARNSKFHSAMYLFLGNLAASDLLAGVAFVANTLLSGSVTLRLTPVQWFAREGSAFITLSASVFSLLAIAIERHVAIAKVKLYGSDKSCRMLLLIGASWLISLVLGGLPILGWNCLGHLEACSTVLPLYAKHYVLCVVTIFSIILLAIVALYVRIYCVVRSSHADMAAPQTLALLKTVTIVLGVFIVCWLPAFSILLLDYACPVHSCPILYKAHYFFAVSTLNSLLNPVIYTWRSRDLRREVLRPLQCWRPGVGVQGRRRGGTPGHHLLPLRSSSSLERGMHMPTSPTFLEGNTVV", "test": "[γ-35S]GTP binding assay, HEK293T cell membranes, S1P2", "details": "GTPγS binding; for EC50: read-out: EC50 Values (nM) for S1P Analogues at Recombinant S1P Receptors, hS1P2, overexpressed human HEK293 cells", "method": "(§3) Human or mouse S1P5 DNA was mixed with an equal amount of DNA encoding a rat Gi2R protein as well as DNAs encoding cow β1 and γ2 proteins and used to transfect monolayers of HEK293T cells using the calcium phosphate precipitate method. After 60 hours, cells were harvested, and microsomes were prepared, aliquoted, and stored at −70° C. until use.\nas §1\n(§4) Assay of cAMP accumulation was performed as described previously (See Im et al., J. Biol. Chem. 275, 14281-14286 (2000), the disclosure of which is incorporated herein). Assays were conducted on populations of 5×10^5 cells stimulated with 1 μM forskolin in the presence of the phosphodiesterase inhibitor isomethylbutylxanthine (IBMX, 1 mM) for 15 minutes. cAMP was measured by automated radioimmunoassay. The GTPγS studies were performed using zebrafish S1P1 overexpressed rat RH-7777 and human hS1P1, hS1P2, hS1P3 and hS1P5 overexpressed human HEK293 cells.\nas §2"}, "S1P receptors [1]": {"system": "T3, S1P receptors", "T3 construct": "other: various S1P receptors", "test": "[γ-35S]GTP binding assay, recombinant S1P receptors in general", "details": "various S1P receptors", "method": "(§5) The same results were obtained regardless of whether the recombinant receptor used exogenous G proteins (HEK293T cells) or endogenous G proteins (RH7777 cells). In addition, insect Sf9 cells infected with recombinant baculovirus encoding receptors (e.g. […] The Sf9 cell and HEK293T cell membranes gave similar results. Furthermore, the activities measured in the broken cell assay predicted the responses seen in whole cell assays. […] After incubating for 30 minutes at 30° C., bound radionuclide was separated from free by filtration through Whatman GF/C paper using a Brandel Cell Harvester (Gaithersburg, Md.). Assay of cAMP accumulation was performed as described previously (See Im et al., J. Biol. […] Assays were conducted on populations of 5×10^5 cells stimulated with 1 μM forskolin in the presence of the phosphodiesterase inhibitor isomethylbutylxanthine (IBMX, 1 mM) for 15 minutes. cAMP was measured by automated radioimmunoassay."}, "hS1P3": {"target": "T4, hS1P3 (Homo sapiens, UniProt Q99500)", "T4 construct": "expressed in transfected cells; host or cells: HEK293T cells (transient)", "T4 sequence (Q99500 whole entry)": "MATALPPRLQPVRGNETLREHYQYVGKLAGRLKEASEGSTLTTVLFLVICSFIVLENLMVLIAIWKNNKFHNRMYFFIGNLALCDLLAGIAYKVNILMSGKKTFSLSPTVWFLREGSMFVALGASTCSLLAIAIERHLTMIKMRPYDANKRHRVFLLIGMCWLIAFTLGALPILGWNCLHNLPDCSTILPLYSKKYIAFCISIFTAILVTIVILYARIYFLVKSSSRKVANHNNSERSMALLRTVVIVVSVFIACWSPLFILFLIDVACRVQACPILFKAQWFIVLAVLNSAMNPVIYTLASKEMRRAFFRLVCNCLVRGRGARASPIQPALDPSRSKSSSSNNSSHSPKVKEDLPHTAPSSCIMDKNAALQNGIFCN", "test": "[γ-35S]GTP binding assay, HEK293T cell membranes, S1P3", "details": "GTPγS binding; for EC50: read-out: EC50 Values (nM) for S1P Analogues at Recombinant S1P Receptors, hS1P3, overexpressed human HEK293 cells", "method": "as §3, §1, §4, §2"}, "hS1P1": {"target": "T5, hS1P1 (Homo sapiens, UniProt P21453)", "T5 construct": "expressed in transfected cells; host or cells: HEK293T cells (transient)", "T5 sequence (P21453 whole entry)": "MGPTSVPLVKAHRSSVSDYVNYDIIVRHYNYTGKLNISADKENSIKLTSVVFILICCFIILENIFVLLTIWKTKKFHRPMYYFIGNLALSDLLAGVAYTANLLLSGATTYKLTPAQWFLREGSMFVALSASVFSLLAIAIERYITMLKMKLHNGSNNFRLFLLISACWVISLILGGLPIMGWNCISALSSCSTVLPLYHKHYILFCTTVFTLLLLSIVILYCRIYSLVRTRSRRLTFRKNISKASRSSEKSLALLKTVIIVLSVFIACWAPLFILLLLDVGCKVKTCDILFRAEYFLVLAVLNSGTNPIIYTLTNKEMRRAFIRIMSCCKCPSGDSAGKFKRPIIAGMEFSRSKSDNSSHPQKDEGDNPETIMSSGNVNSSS", "test": "[γ-35S]GTP binding assay, HEK293T cell membranes, S1P1", "details": "GTPγS binding; for EC50: read-out: EC50 Values (nM) for S1P Analogues at Recombinant S1P Receptors, hS1P1, overexpressed human HEK293 cells", "method": "as §3, §1, §4, §2"}, "zS1P1": {"target": "T6, zS1P1 (Danio rerio, UniProt Q9DDK4)", "T6 construct": "expressed in transfected cells; host or cells: rat hepatoma RH-7777 cells", "T6 sequence (Q9DDK4 1-362)": "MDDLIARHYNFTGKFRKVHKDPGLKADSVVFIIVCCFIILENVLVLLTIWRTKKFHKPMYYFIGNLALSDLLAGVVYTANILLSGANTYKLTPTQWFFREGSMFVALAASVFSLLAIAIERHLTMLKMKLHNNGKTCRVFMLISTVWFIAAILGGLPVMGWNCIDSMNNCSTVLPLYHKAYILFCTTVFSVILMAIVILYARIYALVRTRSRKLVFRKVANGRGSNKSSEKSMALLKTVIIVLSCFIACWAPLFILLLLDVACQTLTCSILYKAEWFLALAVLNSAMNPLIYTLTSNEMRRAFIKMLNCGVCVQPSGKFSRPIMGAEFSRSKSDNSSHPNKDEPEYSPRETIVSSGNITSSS", "test": "[γ-35S]GTP binding assay, zebrafish S1P1 overexpressed in rat RH-7777 cells", "details": "read-out: EC50 Values (nM) for S1P Analogues at Recombinant S1P Receptors, zS1P1; GTPγS binding; zebrafish S1P1 overexpressed rat RH-7777", "method": "as §1\nRat hepatoma RH7777 cell monolayers were transfected with human or mouse S1P5/pCR3.1 DNA using the calcium phosphate precipitate method, and clonal populations expressing the neomycin phosphotransferase gene were selected by addition of geneticin (G418) to the culture medium. The RH7777 cells were grown in monolayers at 37° C. in a 5% CO2/95% air atmosphere in growth medium consisting of 90% MEM, […], 2 mM glutamine, and 1 mM sodium pyruvate.\nas §4"}, "mS1P5": {"target": "T7, mS1P5 (Mus musculus, UniProt Q91X56)", "T7 construct": "expressed in transfected cells; host or cells: HEK293T cells (transient)", "T7 sequence (Q91X56 whole entry)": "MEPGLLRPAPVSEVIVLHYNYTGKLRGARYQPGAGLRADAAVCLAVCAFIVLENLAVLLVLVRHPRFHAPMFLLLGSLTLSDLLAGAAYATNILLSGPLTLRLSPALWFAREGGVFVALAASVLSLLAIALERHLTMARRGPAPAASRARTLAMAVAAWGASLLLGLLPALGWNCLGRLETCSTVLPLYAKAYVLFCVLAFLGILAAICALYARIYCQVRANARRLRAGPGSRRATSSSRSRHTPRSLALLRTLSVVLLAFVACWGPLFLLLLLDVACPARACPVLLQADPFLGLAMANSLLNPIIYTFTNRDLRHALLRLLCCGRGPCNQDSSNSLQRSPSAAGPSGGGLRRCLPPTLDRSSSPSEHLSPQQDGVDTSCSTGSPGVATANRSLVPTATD", "test": "[γ-35S]GTP binding assay, mouse S1P5", "details": "read-out: EC50 Values (nM) for S1P Analogues at Recombinant S1P Receptors, mS1P5, GTPγS binding", "method": "as §3, §1, §4"}, "hS1P5": {"target": "T8, hS1P5 (Homo sapiens, UniProt Q9H228)", "T8 construct": "expressed in transfected cells; host or cells: HEK293T cells (transient, calcium phosphate)", "T8 sequence (Q9H228 whole entry)": "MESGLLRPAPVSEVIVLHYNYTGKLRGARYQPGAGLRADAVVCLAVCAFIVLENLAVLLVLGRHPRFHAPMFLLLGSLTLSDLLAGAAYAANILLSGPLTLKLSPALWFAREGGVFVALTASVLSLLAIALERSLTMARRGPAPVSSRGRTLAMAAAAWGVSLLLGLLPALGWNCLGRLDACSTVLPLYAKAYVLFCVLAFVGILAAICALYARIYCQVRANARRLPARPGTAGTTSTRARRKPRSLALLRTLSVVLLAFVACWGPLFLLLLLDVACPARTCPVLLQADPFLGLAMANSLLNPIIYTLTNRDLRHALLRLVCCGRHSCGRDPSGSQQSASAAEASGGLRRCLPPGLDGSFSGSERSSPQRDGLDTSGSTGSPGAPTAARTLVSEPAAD", "test": "[γ-35S]GTP binding assay, HEK293T cell membranes, S1P5", "details": "read-out: EC50 Values (nM) for S1P Analogues at Recombinant S1P Receptors, hS1P5; GTPγS binding; overexpressed human HEK293 cells", "method": "as §3, §1, §4, §2"}, "S1P receptors [2]": {"system": "S1P receptors", "test": "[γ-35S]GTP binding assay, recombinant S1P receptors in general", "details": "each receptor", "method": "as §5"}}, "note": "Entries after “also recorded” stand apart in the source; their conditions may differ.", "data": [{"smiles": "CCCCCCCCCCc1cccc(NC(=O)[C@H](N)CO)c1", "note": "[VPC23065]", "values": [{"measurement": "agonist activity at the S1P4 receptor", "setting": "hS1P4", "result": "good agonist activity"}, {"measurement": "activity at the S1P2 receptor", "setting": "hS1P2", "result": "inactive; also recorded: failed to show significant activity"}, {"measurement": "agonist activity at S1P receptors", "setting": "S1P receptors [1]", "result": "significant agonist activity"}]}, {"smiles": "CCCCCCCCc1cccc(NC(=O)[C@H](N)COP(=O)(O)O)c1", "note": "[VPC23019]", "values": [{"measurement": "agonism or inverse agonism (antagonism) at the S1P3 receptor", "setting": "hS1P3", "result": "inverse agonists"}, {"measurement": "activity at the S1P2 receptor", "setting": "hS1P2", "result": "inactive; also recorded: failed to show significant activity"}, {"measurement": "antagonism at S1P1", "setting": "hS1P1; competition with S1P", "result": "antagonism"}]}, {"smiles": "CCCCCCCCCc1cccc(NC(=O)[C@H](N)COP(=O)(O)O)c1", "note": "[VPC23079]", "values": [{"measurement": "agonism or inverse agonism (antagonism) at the S1P3 receptor", "setting": "hS1P3", "result": "agonism"}, {"measurement": "activity at the S1P2 receptor", "setting": "hS1P2", "result": "inactive; also recorded: failed to show significant activity"}]}, {"smiles": "CCCCCCCCCCCCCCNC(=O)[C@@H](N)COP(=O)(O)O", "note": "[VPC22051]", "values": [{"measurement": "EC50", "setting": "hS1P3", "result": 602, "unit": "nM"}, {"measurement": "EC50", "setting": "zS1P1", "result": "> 5000", "unit": "nM"}, {"measurement": "EC50", "setting": "mS1P5", "result": "> 5000", "unit": "nM"}, {"measurement": "EC50", "setting": "hS1P5", "result": "> 5000", "unit": "nM"}, {"measurement": "EC50", "setting": "hS1P2", "result": 2760, "unit": "nM"}, {"measurement": "EC50", "setting": "hS1P1", "result": 322, "unit": "nM"}]}, {"smiles": "CCCCCCc1cccc(NC(=O)[C@H](N)COP(=O)(O)O)c1", "note": "[VPC23031]", "values": [{"measurement": "agonism or inverse agonism (antagonism) at the S1P3 receptor", "setting": "hS1P3", "result": "inverse agonists"}, {"measurement": "activity at the S1P2 receptor", "setting": "hS1P2", "result": "inactive; also recorded: failed to show significant activity"}]}, {"smiles": "CCCCCCCCCCCCC/C=C/[C@@H](O)[C@@H](N)COP(=O)(O)O", "note": "[Compound S1P, Sphingosine-1-phosphate, reference compound]", "values": [{"measurement": "increase of GTPγS binding at each receptor", "setting": "S1P receptors [2]", "result": "2-5 fold"}]}, {"smiles": "CCCCCCCCCCc1cccc(NC(=O)[C@H](N)COP(=O)(O)O)c1", "note": "[VPC23069]", "values": [{"measurement": "agonism or inverse agonism (antagonism) at the S1P3 receptor", "setting": "hS1P3", "result": "agonism"}, {"measurement": "activity at the S1P2 receptor", "setting": "hS1P2", "result": "inactive; also recorded: failed to show significant activity"}]}, {"smiles": "CCCCCCCCCCCCCCNC(=O)[C@H](N)COP(=O)(O)O", "note": "[VPC22135]", "values": [{"measurement": "potency compared with S1P at the human S1P3 receptor", "setting": "hS1P3", "result": "approached the potency of S1P"}, {"measurement": "potency compared with S1P at the human S1P1 receptor", "setting": "hS1P1", "result": "approached the potency of S1P"}]}, {"smiles": "CCCCCCCCc1ccccc1NC(=O)[C@H](N)CO", "note": "[VPC23087]", "values": [{"measurement": "agonist activity at the S1P4 receptor", "setting": "hS1P4", "result": "good agonist activity"}, {"measurement": "activity at the S1P2 receptor", "setting": "hS1P2", "result": "inactive; also recorded: failed to show significant activity"}, {"measurement": "agonist activity at S1P receptors", "setting": "S1P receptors [1]", "result": "significant agonist activity"}]}, {"smiles": "CCCCCCCCCCCCCCOC(=O)[C@@H](N)COP(=O)(O)O", "note": "[VPC22053]", "values": [{"measurement": "less potent than enantiomer VPC22135 at the S1P3 receptor", "setting": "hS1P3", "result": "more than 1 log order"}, {"measurement": "EC50", "setting": "hS1P3", "result": 862, "unit": "nM"}, {"measurement": "EC50", "setting": "zS1P1", "result": "> 5000", "unit": "nM"}, {"measurement": "EC50", "setting": "mS1P5", "result": 2010, "unit": "nM"}, {"measurement": "EC50", "setting": "hS1P5", "result": 1610, "unit": "nM"}, {"measurement": "EC50", "setting": "hS1P2", "result": 2680, "unit": "nM"}, {"measurement": "less potent than enantiomer VPC22135 at the S1P1 receptor", "setting": "hS1P1", "result": "more than 1 log order"}, {"measurement": "EC50", "setting": "hS1P1", "result": 397, "unit": "nM"}]}, {"smiles": "CCCCCCCCCc1cccc(NC(=O)[C@H](N)CO)c1", "note": "[VPC23075]", "values": [{"measurement": "agonist activity at the S1P4 receptor", "setting": "hS1P4", "result": "good agonist activity"}, {"measurement": "activity at the S1P2 receptor", "setting": "hS1P2", "result": "inactive; also recorded: failed to show significant activity"}, {"measurement": "agonist activity at S1P receptors", "setting": "S1P receptors [1]", "result": "significant agonist activity"}]}, {"smiles": "CCCCCCCCc1ccccc1NC(=O)[C@H](N)COP(=O)(O)O", "note": "[VPC23089]", "values": [{"measurement": "agonism or inverse agonism (antagonism) at the S1P3 receptor", "setting": "hS1P3", "result": "inverse agonists"}, {"measurement": "activity at the S1P2 receptor", "setting": "hS1P2", "result": "inactive; also recorded: failed to show significant activity"}]}]}
